Measured values: paper PMC9827108 (Cancer Discovery, 2022)
Like-named read-outs stand apart in the source and are kept apart here.

Key:
[1] = system: patients with EGFRm, MET-amplified/overexpressed NSCLC; format: in vivo, human
[2] = format: in vivo, human; settings: Parts B and D

| SMILES | Any AE grade ≥3 possibly causally related to the labelled drug(s) only ([1]; All Part B) | Any AE leading to discontinuation of the labelled drug ([1]; All Part B) | Any AE leading to interruption or reduction of the labelled drug ([1]; All Part B) | Any SAE leading to discontinuation of the labelled drug ([1]; All Part B) | Any SAE leading to interruption or reduction of the labelled drug ([1]; All Part B) | Any SAE possibly causally related to the labelled drug(s) only ([1]; All Part B) | Labelled drug discontinued due to possibly causally related AE: vomiting ([1]; All Part B) | Any AE grade ≥3 possibly causally related to the labelled drug(s) only ([1]; Part B1) | Any AE leading to discontinuation of the labelled drug ([1]; Part B1) | Any AE leading to interruption or reduction of the labelled drug ([1]; Part B1) | Any SAE leading to discontinuation of the labelled drug ([1]; Part B1) | Any SAE leading to interruption or reduction of the labelled drug ([1]; Part B1) | Any SAE possibly causally related to the labelled drug(s) only ([1]; Part B1) | Any AE grade ≥3 possibly causally related to the labelled drug(s) only ([1]; Part B2) | Any AE leading to discontinuation of the labelled drug ([1]; Part B2) | Any AE leading to interruption or reduction of the labelled drug ([1]; Part B2) | Any SAE leading to discontinuation of the labelled drug ([1]; Part B2) | Any SAE leading to interruption or reduction of the labelled drug ([1]; Part B2) | Any SAE possibly causally related to the labelled drug(s) only ([1]; Part B2) | Any AE grade ≥3 possibly causally related to the labelled drug(s) only ([1]; Part B3) | also measured |
| --- | --- | --- | --- | --- | --- | --- | --- | --- | --- | --- | --- | --- | --- | --- | --- | --- | --- | --- | --- | --- | --- |
| C=CC(=O)Nc1cc(Nc2nccc(-c3cn(C)c4ccccc34)n2)c(OC)cc1N(C)CCN(C)C [osimertinib] | 8 (6) n (%) | 24 (17) n (%) | 59 (43%) n (%) | 20 (14) n (%) | 27 (20) n (%) | 0 n (%) | 2 (1%) n (%) | 3 (4) n (%) | 12 (17) n (%) | 22 (32) n (%) | 9 (13) n (%) | 10 (14) n (%) | 0 n (%) | 3 (6) n (%) | 9 (18) n (%) | 25 (49) n (%) | 8 (16) n (%) | 11 (22) n (%) | 0 n (%) | 2 (11) n (%) | Labelled drug discontinued due to possibly causally related AE: pneumonitis ([1]; All Part B): 3 (2%) n (%); Any AE leading to interruption or reduction of the labelled drug ([1]; All Part B, listed as Osimertinib): 59 (43) n (%); Any AE leading to discontinuation of the labelled drug ([1]; Part B3): 3 (17) n (%); Any AE leading to interruption or reduction of the labelled drug ([1]; Part B3): 12 (67) n (%); Any SAE leading to discontinuation of the labelled drug ([1]; Part B3): 3 (17) n (%); Any SAE leading to interruption or reduction of the labelled drug ([1]; Part B3): 6 (33) n (%); Any SAE possibly causally related to the labelled drug(s) only ([1]; Part B3): 0 n (%); Any AE grade ≥3 possibly causally related to the labelled drug(s) only ([1]; Part D): 2 (5) n (%); Any AE leading to discontinuation of the labelled drug ([1]; Part D): 8 (19) n (%); Any AE leading to interruption or reduction of the labelled drug ([1]; Part D): 13 (31) n (%); Any SAE leading to discontinuation of the labelled drug ([1]; Part D): 2 (5) n (%); Any SAE leading to interruption or reduction of the labelled drug ([1]; Part D): 10 (24) n (%); Any SAE possibly causally related to the labelled drug(s) only ([1]; Part D): 1 (2) n (%) |
| C[C@@H](c1ccc2nccn2c1)n1nnc2ncc(-c3cnn(C)c3)nc21 [savolitinib, (S)-1-(1-(Imidazo[1,2-a]pyridin-6-yl)ethyl)-6-(1-methyl-1H-pyrazol-4-yl)-1H-[1,2, 3]triazolo[4,5-b]pyrazine] | 34 (25) n (%) | 49 (36) n (%) | 61 (44%) n (%) | 28 (20) n (%) | 20 (14) n (%) | 15 (11) n (%) | 4 (3%) n (%) | 14 (20) n (%) | 19 (28) n (%) | 27 (39) n (%) | 11 (16) n (%) | 9 (13) n (%) | 6 (9) n (%) | 13 (25) n (%) | 20 (39) n (%) | 25 (49) n (%) | 11 (22) n (%) | 9 (18) n (%) | 6 (12) n (%) | 7 (39) n (%) | Any AE leading to interruption or reduction of the labelled drug ([1]; All Part B, listed as Savolitinib): 61 (44) n (%); Deaths due to AEs considered possibly causally related to study drug ([1]; Part B2): one case was considered possibly related to savolitinib (acute renal failure); Any AE leading to discontinuation of the labelled drug ([1]; Part B3): 10 (56) n (%); Any AE leading to interruption or reduction of the labelled drug ([1]; Part B3): 9 (50) n (%); Any SAE leading to discontinuation of the labelled drug ([1]; Part B3): 6 (33) n (%); Any SAE leading to interruption or reduction of the labelled drug ([1]; Part B3): 2 (11) n (%); Any SAE possibly causally related to the labelled drug(s) only ([1]; Part B3): 3 (17) n (%); Any AE grade ≥3 possibly causally related to the labelled drug(s) only ([1]; Part D): 5 (12) n (%); Any AE leading to discontinuation of the labelled drug ([1]; Part D): 15 (36) n (%); Any AE leading to interruption or reduction of the labelled drug ([1]; Part D): 16 (38) n (%); Any SAE leading to discontinuation of the labelled drug ([1]; Part D): 6 (14) n (%); Any SAE leading to interruption or reduction of the labelled drug ([1]; Part D): 7 (17) n (%); Any SAE possibly causally related to the labelled drug(s) only ([1]; Part D): 2 (5) n (%); Labelled drug discontinued due to possibly causally related AE: myalgia ([1]; Part D): 3 (7%) n (%); Labelled drug discontinued due to possibly causally related AE: pyrexia ([1]; Part D): 2 (5%) n (%); Labelled drug discontinued due to possibly causally related AE: rash ([1]; Part D): 2 (5%) n (%); Accumulation and time dependence of PK at steady state ([2]; multiple dosing): neither apparent accumulation nor time-dependent PK changes upon multiple dosing; half-life ([2]; human, plasma, oral, Mean terminal elimination half-life (t1/2λz), single and multiple dosing): 2 to 4 h; Tmax ([2]; human, plasma, oral, Median tmax and tssmax, savolitinib 600 mg/300 mg q.d. + osimertinib 80 mg q.d.): 2 to 4 h |
